Source: ChEMBL document CHEMBL1201862, “PubChem BioAssay data set” (2004)
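1) Cells in 96-well plates. 2) Compound, 48 h, 5 concentrations. 3) Linear interpolation between surrounding doses. 4) Unreached endpoint = highest concentration. Abbreviation: GI50, concentration required for 50% inhibition of growth.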 Active and inactive are the calls of the source. Rule as the data show it: active = GI50 up to about 1.1 µM and inactive = higher.

Experiments:
Assay in all cases: DTP human tumour cell line panel, 48 h
SF-539 = system: SF-539
DMS-114 = system: DMS-114
M19-MEL = system: M19-MEL
SNB-75 = system: SNB-75
UACC-257 = system: UACC-257
K562 = system: K562
NCI-H522 = system: NCI-H522
COLO 205 = system: COLO 205
RPMI-8226 = system: RPMI-8226
MOLT-4 = system: MOLT-4
SNB-78 = system: SNB-78
LXFL 529 = system: LXFL 529
SF-268 = system: SF-268
OVCAR-3 = system: OVCAR-3
SF-295 = system: SF-295
NCI-H460 = system: NCI-H460
SK-MEL-28 = system: SK-MEL-28
IGROV-1 = system: IGROV-1
HCC 2998 = system: HCC 2998
M14 = system: M14
SK-MEL-2 = system: SK-MEL-2
SNB-19 = system: SNB-19
UACC-62 = system: UACC-62
SK-OV-3 = system: SK-OV-3
HT-29 = system: HT-29
RXF 393 = system: RXF 393
Malme-3M = system: Malme-3M
ACHN = system: ACHN
NCI-H23 = system: NCI-H23
HCT-116 = system: HCT-116
UO-31 = system: UO-31
CCRF-CEM = system: CCRF-CEM
OVCAR-4 = system: OVCAR-4
HOP-92 = system: HOP-92
KM12 = system: KM12
HOP-62 = system: HOP-62
HL-60 = system: HL-60
NCI-H226 = system: NCI-H226
HCT-15 = system: HCT-15
SW-620 = system: SW-620
SK-MEL-5 = system: SK-MEL-5
A549 = system: A549
DLD-1 = system: DLD-1
OVCAR-8 = system: OVCAR-8
EKVX = system: EKVX
DMS-273 = system: DMS-273
KM-20L2 = system: KM-20L2
OVCAR-5 = system: OVCAR-5
U-251 = system: U-251
SR = system: SR
HOP-18 = system: HOP-18
TK-10 = system: TK-10
LOX IMVI = system: LOX IMVI
SN12C = system: SN12C
A498 = system: A498

## CCN(CC)CC/N=C\c1c(O)c(O)c(C(C)C)c2cc(C)c(-c3c(C)cc4c(C(C)C)c(O)c(O)c(/C=N/CCN(CC)CC)c4c3O)c(O)c12
SF-539
  GI50: 2.2 µM (inactive)
DMS-114
  GI50: 1.58 µM (inactive)
M19-MEL
  GI50: 3.45 µM (inactive)
SNB-75
  GI50: 5.31 µM (inactive)
UACC-257
  GI50: 5.53 µM (inactive)
K562
  GI50: 1.02 µM (active)
NCI-H522
  GI50: 0.959 µM (active)
COLO 205
  GI50: 3.54 µM (inactive)
RPMI-8226
  GI50: 1.53 µM (inactive)
MOLT-4
  GI50: 1.29 µM (inactive)
SNB-78
  GI50: 0.716 µM (active)
LXFL 529
  GI50: 1.46 µM (inactive)
SF-268
  GI50: 4 µM (inactive)
OVCAR-3
  GI50: 1.59 µM (inactive)
SF-295
  GI50: 1.58 µM (inactive)
NCI-H460
  GI50: 2.32 µM (inactive)
SK-MEL-28
  GI50: 3.17 µM (inactive)
IGROV-1
  GI50: 2.74 µM (inactive)
HCC 2998
  GI50: 2.11 µM (inactive)
M14
  GI50: 1.83 µM (inactive)
SK-MEL-2
  GI50: 2.3 µM (inactive)
SNB-19
  GI50: 1.65 µM (inactive)
UACC-62
  GI50: 2.55 µM (inactive)
SK-OV-3
  GI50: 3.46 µM (inactive)
HT-29
  GI50: 1.77 µM (inactive)
RXF 393
  GI50: 1.33 µM (inactive)
Malme-3M
  GI50: 4.16 µM (inactive)
ACHN
  GI50: 2.66 µM (inactive)
NCI-H23
  GI50: 2.95 µM (inactive)
HCT-116
  GI50: 1.82 µM (inactive)
UO-31
  GI50: 2.93 µM (inactive)
CCRF-CEM
  GI50: 0.354 µM (active)
OVCAR-4
  GI50: 0.959 µM (active)
HOP-92
  GI50: 2.38 µM (inactive)
KM12
  GI50: 1.1 µM (active)
HOP-62
  GI50: 2.65 µM (inactive)

## Cc1ccc(Sc2ccccc2[N+](=O)[O-])cc1
HL-60
  GI50: 21 µM (inactive)
SF-539
  GI50: 33 µM (inactive)
M19-MEL
  GI50: 32.1 µM (inactive)
NCI-H226
  GI50: 21.7 µM (inactive)
SNB-75
  GI50: 5.71 µM (inactive)
HCT-15
  GI50: 20 µM
UACC-257
  GI50: 20 µM (inactive)
K562
  GI50: 18.1 µM (inactive)
SW-620
  GI50: 25.9 µM (inactive)
COLO 205
  GI50: 23.4 µM (inactive)
RPMI-8226
  GI50: 42.4 µM (inactive)
SK-MEL-5
  GI50: 15.3 µM (inactive)
MOLT-4
  GI50: 21.9 µM (inactive)
SNB-78
  GI50: 36.6 µM (inactive)
LXFL 529
  GI50: 29.6 µM (inactive)
SF-268
  GI50: 38.2 µM (inactive)
OVCAR-3
  GI50: 31 µM (inactive)
SF-295
  GI50: 21.6 µM (inactive)
NCI-H460
  GI50: 31.1 µM (inactive)
SK-MEL-28
  GI50: 21.9 µM (inactive)
IGROV-1
  GI50: 83 µM (inactive)
A549
  GI50: 35 µM (inactive)
HCC 2998
  GI50: 21 µM (inactive)
DLD-1
  GI50: 32.4 µM (inactive)
M14
  GI50: 29 µM (inactive)
OVCAR-8
  GI50: 32.2 µM (inactive)
EKVX
  GI50: 28.6 µM (inactive)
DMS-273
  GI50: 28.6 µM (inactive)
SK-MEL-2
  GI50: 27.9 µM (inactive)
KM-20L2
  GI50: 33.3 µM (inactive)
OVCAR-5
  GI50: 72.3 µM (inactive)
U-251
  GI50: 23 µM (inactive)
UACC-62
  GI50: 37.3 µM (inactive)
SR
  GI50: 31.3 µM (inactive)
HOP-18
  GI50: > 100 µM (inactive)
SK-OV-3
  GI50: 34.4 µM (inactive)
TK-10
  GI50: 37.8 µM (inactive)
LOX IMVI
  GI50: 27.4 µM (inactive)
SN12C
  GI50: 29.8 µM (inactive)
HT-29
  GI50: 19.9 µM (inactive)
RXF 393
  GI50: 18 µM (inactive)
Malme-3M
  GI50: 32.3 µM (inactive)
ACHN
  GI50: 43.7 µM (inactive)
NCI-H23
  GI50: 27.4 µM (inactive)
HCT-116
  GI50: 27.5 µM (inactive)
UO-31
  GI50: 28.8 µM (inactive)
CCRF-CEM
  GI50: 30.9 µM (inactive)
OVCAR-4
  GI50: 27.4 µM (inactive)
HOP-92
  GI50: 19.4 µM (inactive)
KM12
  GI50: 29.4 µM (inactive)
A498
  GI50: 47.6 µM (inactive)
HOP-62
  GI50: 32.1 µM (inactive)
